Experimental data as given in PMC9769502 (Microbiology Spectrum, 2022).
Read-outs that look alike come from different tables or passages of the source. No end group written: not given here.

Legend:
[1] = test system: Leishmania donovani axenic amastigotes
Method: We utilized a previously developed high-throughput screening assay using transgenic axenic amastigotes expressing a red fluorescent protein, mCherry. Changes in mCherry fluorescence were normalized to 50 μM miltefosine in order to quantify parasite inhibition ([52]). In total, 5 scaffold 25-mer peptides and 475 synthetic 25-mer peptide variants were screened (Fig. 1). […] The assay was repeated, and the average percent parasite killing was determined.
Axenic amastigotes were differentiated as described previously ([69]).
Axenic amastigotes were differentiated as described previously ([69]); briefly, transgenic L. donovani promastigotes expressing mCherry were differentiated by pH and temperature shifts. Amastigotes were seeded into 96-well plates at 5 × 10^6 cells/mL and incubated for 48 h in the presence of decreasing drug concentrations, starting at 20 μM, along with the appropriate solvent controls. Fluorescence was monitored (587-nm excitation/610-nm emission) over 48 h using a FlexStation 3 benchtop multimode reader (Molecular Devices). […] Thus, changes in mCherry fluorescence were normalized to the 50 μM miltefosine control in order to quantify parasite inhibition. Each assay was performed in triplicate. The IC50 values were calculated by nonlinear regression analysis using GraphPad Prism 9.0 for Windows.

THP-1 macrophages = experiment: Cytotoxicity against THP-1 macrophages (CellTiter-Blue); type: cell-based, human
Method: THP-1 (human acute monocytic leukemia-derived) host macrophages were cultured in RPMI 1640 supplemented with 10% FCS and a penicillin-streptomycin antibiotic solution (10,000 U/mL penicillin, 10,000 μg/mL streptomycin) at 37°C with 5% CO2. THP-1 cells were incubated with 0.25 μM phorbol 12-myristate […] (PMA) for 48 h to differentiate into mature macrophages. Differentiated macrophages were seeded into 96-well plates at 5 × 10^6 cells/mL and incubated for 48 h in the presence of 20 μM antimicrobial peptides along with the appropriate solvent controls. Cell viability assays were conducted using CellTiter-Blue (Promega), based on resazurin reduction. After the 48-h incubation period, CellTiter-Blue reagent was added to cells for 4 h at 37°C, and fluorescence was measured (555-nm excitation/580-nm emission) using a FlexStation 3 benchtop multimode reader (Molecular Devices). Each assay was performed in triplicate. The CC50 values were calculated by nonlinear regression analysis using GraphPad Prism 9.0 for Windows.

[2] = read-out: Axenic amastigotes Mean IC50 ± SD, L. donovani mCherry axenic amastigotes, 48 h, fluorescence normalized to 50 μM miltefosine, highest concentration 20 μM, mean of three replicates
[3] = read-out: Axenic amastigotes Mean IC50 ± SD

Sequence	IC50 [1, 2]	THP-1 macrophage CC50 (THP-1 macrophages)	IC50 [1, 3]	IC50 ([1]; 48 h)	THP-1 macrophage CC50 (THP-1 macrophages; 48 h)
AWKETIRQYLKNKIKKKGRKAVIAW [Syn-safencin-19]	0.38 µM	< 20 µM	–	–	–
AGTEKIFQRLKKWIQEGKKIAKRAW [Syn-larvacin-31]	–	< 20 µM	3.8 µM	–	–
AGAQRLTLYLKEELRKRWKKAFIAW [Syn-xiamencin-18]	0.65 µM	< 20 µM	–	–	–
AGRQALTKYLLEELRKRWKKAFIAW [Syn-xiamencin-20]	0.47 µM	< 20 µM	–	–	–
AGSERIAKELKKYIKKGKKWIRAAW [Syn-enterocin-64]	0.42 µM	< 20 µM	–	–	–
AGKEKIRKKLKNEWKKKGRKAVIAW [Syn-safencin-48]	1.75 µM	< 20 µM	–	–	–
AWKETIRKYLKNEIKKKGRKAVIAW [Syn-safencin-22]	1.18 µM	< 20 µM	–	–	–
AGRQALTLYLKEELRKRGKKWFIAW [Syn-xiamencin-33]	2.66 µM	< 20 µM	–	–	–
AGKETIRQYLKNEIKKKGRKAVIWW [Syn-safencin-81]	3.15 µM	< 20 µM	–	–	–
AGSERIAKELKKYIKKWKKVIRAAW [Syn-enterocin-48]	1.21 µM	< 20 µM	–	–	–
AGKEKIRQYLKNEIKKKGRKAVWAW [Syn-safencin 77]	–	> 20 µM	–	0.39 ± 0.13 µM	>20 µM
AGKEKIRQYLKNEIKKKGRKAWIAW [Syn-safencin-69]	3.37 µM	< 20 µM	–	–	–
AGKETIRQFLKKRIQEKGKRAKIAW [Syn-larvacin-93]	2.46 µM	< 20 µM	–	–	–
AGRQALTLYLKEELRKFWKKARIAW [Syn-xiamencin-21]	0.59 µM	< 20 µM	–	–	–
AWKETIRQYLKNKIKKKWRKAVIAW [Syn-safencin-91]	0.6 µM	< 20 µM	–	–	–
AGKETIFWRLKKKIWEKGKRATIAW [Syn-larvacin-51]	0.42 µM	< 20 µM	–	–	–
AGKETIRQFLKKKIQEGKKRATIAW [Syn-larvacin-4]	1.09 µM	below 20 μM	–	–	–
AGKETIRQFLKKKIQEKKKRATIAW [Syn-larvacin-81]	0.26 µM	< 20 µM	–	–	–
AGANRLTKELLEYLRKFWKIARKAW [Syn-xiamencin-24]	1.63 µM	< 20 µM	–	–	–

Sequence	IC50 [1, 2]	THP-1 macrophage CC50 (THP-1 macrophages)	IC50 [1, 3]	IC50 ([1]; 48 h)	THP-1 macrophage CC50 (THP-1 macrophages; 48 h)
AGKEKIRQFLKKKIQEKGKRATIAW [Syn-larvacin-73]	0.39 µM	< 20 µM	–	–	–
AWTEKIFNRLKKTINEGKKIAKRAW [Syn-larvacin-40]	8.35 µM	< 20 µM	–	–	–
AWKETIRQYLKNEIKKKWRKAVIAW [Syn-safencin-89]	1.05 µM	< 20 µM	–	–	–
AGKETIRQYLKNEIKKKGRKAWIAW [Syn-safencin-65]	1.01 µM	< 20 µM	–	–	–
AGANRLTKELLEYLRKFGKIWRKAW [Syn-xiamencin-40]	–	< 20 µM	1.31 µM	–	–
AGKKTIRQYLKNEIKKKGRKAVWAW [Syn-safencin-74]	3.51 µM	< 20 µM	–	–	–
AGRQWLTLYLKEELRKFGKKARIAW [Syn-xiamencin-53]	14.8 µM	< 20 µM	–	–	–
AGKEKIRKKLKNEIKKKGRKWVIAW [Syn-safencin-64]	0.33 µM	< 20 µM	–	–	–
AWANRLTKELLEYLRKFGKIARKAW [Syn-xiamencin-32]	0.89 µM	< 20 µM	–	–	–
AGRQWLTLYLKEELRKRGKKAFIAW [Syn-xiamencin-49]	–	< 20 µM	9.22 µM	–	–
AGKETIRQFLKKTIQEKGKRAKIWW [Syn-larvacin 69]	–	> 20 µM	–	4.14 ± 0.11 µM	>20 µM
AGKETIRKYLKNEIKKKGRKAVWAW [Syn-safencin 78]	–	> 20 µM	–	0.94 ± 0.14 µM	>20 µM
AGRQALWKYLLEELRKRGKKAFIAW [Syn-xiamencin-44]	–	< 20 µM	1.18 µM	–	–
AGANRLWKELLEYLRKFGKIARKAW [Syn-xiamencin-48]	–	< 20 µM	2.18 µM	–	–
AGKEWIFQRLKKKIQEKGKRATIAW [Syn-larvacin-19]	0.73 µM	< 20 µM	–	–	–
AWKKTIRQYLKNKIKKKWRKAVIAW [Syn-safencin-92]	0.9 µM	< 20 µM	–	–	–
AGKKTIRQYLKNKIKKKGRKWVIAW [Syn-safencin-60]	1.31 µM	< 20 µM	–	–	–
WGTEKIRQFLKKKIQEKGKRATIAW [Syn-larvacin-10]	0.27 µM	below 20 μM	–	–	–
AWAQRLTKELLEYLRKFGKIARKAW [Syn-xiamencin-31]	4.82 µM	< 20 µM	–	–	–

Sequence	IC50 [1, 2]	THP-1 macrophage CC50 (THP-1 macrophages)	IC50 [1, 3]	IC50 ([1]; 48 h)	THP-1 macrophage CC50 (THP-1 macrophages; 48 h)
AGRQALWLYLKEELRKFGKKARIAW [Syn-xiamencin-45]	–	< 20 µM	6.13 µM	–	–
AGKETIRQYLKNEIKKKGRKAVWAW [Syn-safencin 73]	–	> 20 µM	–	0.35 ± 0.08 µM	>20 µM
WGKETIRQFLKKKIQEKGKIATRAW [Syn-larvacin 14]	–	> 20 µM	–	3.89 ± 0.1 µM	>20 µM
AWKETIRQFLKKTIQEKGKRAKIAW [Syn-larvacin-37]	0.29 µM	< 20 µM	–	–	–
WGKETIRQYLKNKIKKKGRKAVIAW [Syn-safencin-11]	12.2 µM	below 20 μM	–	–	–
AGKETIRQFLKKKIQEKGKIATRWW [Syn-larvacin-70]	0.3 µM	< 20 µM	–	–	–
AGKEKIRKKLKNEIKKKGRKAWIAW [Syn-safencin 72]	–	> 20 µM	–	12.07 ± 0.09 µM	>20 µM
AGKKTIRQYLKNKIKKKGRKAVWAW [Syn-safencin-76]	16.3 µM	< 20 µM	–	–	–
WGKETIRQKLKNEIKKKGRKAVIAW [Syn-safencin-15]	1.71 µM	below 20 μM	–	–	–
WGKETIRKYLKNEIKKKGRKAVIAW [Syn-safencin-14]	0.67 µM	below 20 μM	–	–	–
AWKETIFQRLKKKIQEKGKRATIAW [Syn-larvacin 35]	–	> 20 µM	–	0.63 ± 0.14 µM	>20 µM
AGKKTIRQYLKNKIKKKGRKAWIAW [Syn-safencin-68]	0.56 µM	< 20 µM	–	–	–
AWKKTIRQYLKNEIKKKWRKAVIAW [Syn-safencin-90]	2.6 µM	< 20 µM	–	–	–
AGKEKIRKKWKNEIKKKGRKAVIAW [Syn-safencin-40]	2.12 µM	< 20 µM	–	–	–
AGRQALTLELKEYLRKRWKKAFIAW [Syn-xiamencin-19]	2.15 µM	< 20 µM	–	–	–
AGRQALTLYLKEELRKFGKKWRIAW [Syn-xiamencin-37]	–	< 20 µM	3.71 µM	–	–
AGKETIRQKLKNEIKKKGRKAVIAW [Syn-safencin 7]	–	> 20 µM	–	0.77 ± 0.08 µM	>20 µM
AGRQALTLELKEYLRKRGKKWFIAW [Syn-xiamencin-35]	–	< 20 µM	–	–	–
